EC50 data for 23 molecules are collected here from patent publication US10000486B2 (priority 2012, dated 2018).

For one test, the system named is VSVg pseudotyped virus. Kind of test: organism not typed. Type of test: cell-based. The settings on record: read-out: Activity (EC50 in μM vs. pseudotyped virus) VSVg.
Test [1] has as its system Lassa GP-pseudotyped-virus. In words: microbe, parasite or virus in culture. Type of test: cell-based, Lassa fever virus. The conditions noted are these: Human immunodeficiency virus 1, read-out: Activity (EC50 in μM vs. pseudotyped virus) Lassa.
Test [2] deals with Machupo pseudotyped virus. In words: organism not typed. Type of test: cell-based. The conditions noted are these: read-out: Activity (EC50 in μM vs. pseudotyped virus) Machupo.

Structures can show the parent of a compound that is named as a salt. Some results are limits rather than exact numbers.

Consider `CCOc1ccc(-n2cnc3cc(/C=C/c4ccc(CC)cc4)ccc32)cc1` [Compound 1, 1-(4-ethoxyphenyl)-5-[(E)-2-(4-ethylphenyl)vinyl]benzimidazole], for which the EC50 with VSVg pseudotyped virus is 10 to 50 µM; in test [1] it was less than 1 µM; in test [2], less than 1 µM.

Regarding `COc1ccc(-n2cnc3cc(/C=C/c4ccc(C(C)C)cc4)ccc32)cc1` [Compound 3, 5-[(E)-2-(4-isopropylphenyl)vinyl]-1-(4-methoxyphenyl)benzimidazole], the figures for the EC50 (in the test on VSVg pseudotyped virus; in test [1]) were 10 to 50 µM and 1 to 10 µM, respectively.

In the case of `CCOc1ccc(-n2cnc3cc(/C=C/c4ccc(C(C)(C)C)cc4)ccc32)cc1` [Compound 4, 5-[(E)-2-(4-tert-butylphenyl)vinyl]-1-(4-ethoxyphenyl)-benzimidazole], the results for the EC50 (with VSVg pseudotyped virus; in test [1]) were 10 to 50 µM and less than 1 µM, respectively.

As for `CC(C)Oc1ccc(-n2cnc3cc(/C=C/c4ccc(C(C)(C)C)cc4)ccc32)cc1` [Compound 6, 5-[(E)-2-(4-tert-butylphenyl)vinyl]-1-(4-isopropoxyphenyl)-benzimidazole], the concentration giving a half-maximal response (EC50) in the test on VSVg pseudotyped virus was 10 to 50 µM; in test [1] it was less than 1 µM.

Consider `CCc1ccc(/C=C/c2ccc3c(c2)ncn3-c2ccc(OC(C)(C)C)cc2)cc1` [Compound 14, 1-(4-tert-butoxyphenyl)-5-[(E)-2-(4-ethylphenyl)-vinyl]benzimidazole], for which the EC50 was 10 to 50 µM with VSVg pseudotyped virus and 1 to 10 µM in test [1].

Consider `CC(C)(C)Oc1ccc(-n2cnc3cc(/C=C/c4ccc(C(C)(C)C)cc4)ccc32)cc1` [Compound 16, 1-(4-tert-butoxyphenyl)-5-[(E)-2-(4-tert-butylphenyl)vinyl]benzimidazole], for which the EC50 in the test with VSVg pseudotyped virus was 10 to 50 µM; in test [1] it was 1 to 10 µM.

Take `CCOc1ccc(-n2cnc3cc(/C=C/c4ccc(C(C)(C)C)cc4)ccc32)nc1` [Compound 20, 5-[(E)-2-(4-tert-butylphenyl)vinyl]-1-(5-ethoxy-2-pyridyl)benzimidazole hydrochloride]: the results for the EC50 (in the test with VSVg pseudotyped virus; in test [1]) were 1 to 10 µM and less than 1 µM, respectively.

Consider `CCOc1ccc(-n2cnc3cc(/C=C/c4ccc(CC)cc4)cnc32)cc1` [Compound 23, 3-(4-ethoxyphenyl)-6-[(E)-2-(4-ethylphenyl)vinyl]imidazo[4,5-b]pyridine], for which the EC50 with VSVg pseudotyped virus was greater than 50 µM; in test [1], 1 to 10 µM.

For the molecule `COc1ccc(-n2cnc3cc(/C=C/c4ccc(C(C)C)cc4)cnc32)cc1` [Compound 25, 6-[(E)-2-(4-isopropylphenyl)vinyl]-3-(4-methoxyphenyl)imidazo[4,5-b]pyridine], the EC50 in the test on VSVg pseudotyped virus was greater than 50 µM; in test [1], 1 to 10 µM.

In the case of `CCOc1ccc(-n2cnc3ccc(CCc4ccc(CC)cc4)cc32)cc1` [Compound 35, 1-(4-ethoxyphenyl)-6-[2-(4-ethylphenyl)-ethyl]benzimidazole], the EC50 was 10 to 50 µM in the test on VSVg pseudotyped virus, less than 1 µM in test [1] and less than 1 µM in test [2].

`CCCCC(O)(CCCC)c1ccc(/C=C\c2ccc3c(c2)ncn3-c2ccc(OC(C)C)cc2)cc1` [Compound 41, 5-[4-[(Z)-2-[1-(4-isopropoxyphenyl)benzimidazol-5-yl]vinyl]phenyl]nonan-5-ol]: the EC50 in the test on VSVg pseudotyped virus was 10 to 50 µM; in test [1], less than 1 µM; in test [2] it was less than 1 µM.

Regarding `CC(C)Oc1ccc(-n2cnc3cc(/C=C\c4ccc(C(C)(C)O)cc4)ccc32)nc1` [Compound 42, 2-[4-[(Z)-2-[1-(5-isopropoxy-2-pyridyl)benzimidazol-5-yl]vinyl]phenyl]propan-2-ol], the EC50 with VSVg pseudotyped virus was 1 to 10 µM; in test [1] it was less than 1 µM; in test [2], less than 1 µM.

As to `CC(C)Oc1ccc(-n2cnc3cc(/C=C\c4ccc(C(C)(C)C(F)(F)F)cc4)ccc32)cc1` [Compound 43, 1-(4-isopropoxyphenyl)-5-[(Z)-2-[4-(2,2,2-trifluoro-1,1-dimethyl-ethyl)phenyl]vinyl]benzimidazole], the EC50 in the test with VSVg pseudotyped virus is 1 to 10 µM; in test [1] it was less than 1 µM; in test [2], less than 1 µM.

On to `CC(C)Oc1ccc(-n2cnc3cc(/C=C\c4ccc(CCC=O)cc4)ccc32)cc1` [Compound 44, 3-[4-[(Z)-2-[1-(4-isopropoxyphenyl)benzimidazol-5-yl]vinyl]phenyl]propanal], for which the EC50 in the test on VSVg pseudotyped virus was 10 to 50 µM; in test [1] it was less than 1 µM.

As for `CC(C)Oc1ccc(-n2cnc3cc(/C=C\c4ccc(C(C)(O)C(F)(F)F)cc4)ccc32)cc1` (stereo not shown) [Compound 46, 1,1,1-trifluoro-2-[4-[(Z)-2-[1-(4-isopropoxyphenyl)benzimidazol-5-yl]vinyl]phenyl]propan-2-ol], the EC50 in the test with VSVg pseudotyped virus was 1 to 10 µM; in test [1] it was less than 1 µM; in test [2] it was less than 1 µM.

`CC(C)Oc1ccc(-n2cnc3cc(/C=C\c4ccc(C(O)(C(F)(F)F)C(F)(F)F)cc4)ccc32)cc1` [Compound 47, 1,1,1,3,3,3-hexafluoro-2-[4-[(Z)-2-[1-(4-isopropoxyphenyl)benzimidazol-5-yl]vinyl]phenyl]propan-2-ol]: the EC50 in the test with VSVg pseudotyped virus was 1 to 10 µM; in test [1], less than 1 µM; in test [2] it was less than 1 µM.

`CC(C)Oc1ccc(-n2cnc3cc(/C=C\c4ccc(C#N)cc4)ccc32)cc1` [Compound 49, 4-[(Z)-2-[1-(4-isopropoxyphenyl)benzimidazol-5-yl]vinyl]benzonitrile]: the EC50 in the test with VSVg pseudotyped virus was 10 to 50 µM; in test [1] it was less than 1 µM.

As to `CC(C)Oc1ccc(-n2cnc3cc(/C=C\c4ccc(C(C)(O)C(=O)O)cc4)ccc32)cc1` (stereo not shown) [Compound 55, 2-hydroxy-2-[4-[(Z)-2-[1-(4-isopropoxyphenyl)benzimidazol-5-yl]vinyl]phenyl]propanoic acid], the EC50 in the test on VSVg pseudotyped virus was greater than 50 µM; in test [1], less than 1 µM.

For `CC(C)Oc1ccc(-n2cnc3cc(/C=C\c4ccc(C5(O)CCCC5)cc4)ccc32)cc1` [Compound 56, 1-[4-[(Z)-2-[1-(4-isopropoxyphenyl)benzimidazol-5-yl]vinyl]phenyl]cyclopentanol], the EC50 in the test with VSVg pseudotyped virus is 1 to 10 µM; in test [1], less than 1 µM; in test [2] it was less than 1 µM.

For `CC(C)Oc1ccc(-n2cnc3cc(/C=C\c4ccc(C5(O)CCCCC5)cc4)ccc32)cc1` [Compound 57, 1-[4-[(Z)-2-[1-(4-isopropoxyphenyl)benzimidazol-5-yl]vinyl]phenyl]cyclohexanol], the EC50 with VSVg pseudotyped virus was 1 to 10 µM; in test [1], less than 1 µM; in test [2] it was less than 1 µM.

Take `CCOc1ccc(Cn2cnc3cc(NCc4ccc(CC)cc4)cnc32)cc1` [Compound 62, 3-[(4-ethoxyphenyl)methyl]-N-[(4-ethylphenyl)-methyl]imidazo[4,5-b]pyridin-6-amine]: the EC50 (with VSVg pseudotyped virus; in test [1]; in test [2]) was 1 to 10 µM throughout.

As for `CCOc1ccc(-n2ccc3cc(NCc4ccc(CC)cc4)ccc32)cc1` [Compound 63, 1-(4-ethoxyphenyl)-N-[(4-ethylphenyl)-methyl]indol-5-amine], the EC50 in the test with VSVg pseudotyped virus is 10 to 50 µM; in test [1], less than 1 µM; in test [2], less than 1 µM.

With `CCOc1ccc(-n2ccc3cc(NCc4ccc(CC)cc4)cnc32)cc1` [Compound 66, 1-(4-ethoxyphenyl)-N-[(4-ethylphenyl)-methyl]pyrrolo[2,3-b]pyridin-5-amine], the EC50 in the test on VSVg pseudotyped virus is greater than 50 µM; in test [1], less than 1 µM; in test [2], 1 to 10 µM.
